Publication PMC11744668, “2-Cyanopyrimidine-Containing Molecules for N-Terminal Selective Cyclization of Phage-Displayed Peptides” (ACS Chemical Biology, 2025)
“Also recorded” adds a separate entry of the source. Starred links: 1 amine or outer side, 2 acyl side, 3 side chain; linkers in the order of their positions; H or OH if unused. Positions of bridges follow the written chain, without caps; N, C: chain ends. Non-standard residues stand in square brackets, D forms with d. Residues, ends and D or L forms follow the SMILES beside them. No end group written: not given here. X1 = O=C([C@@H]1CSC(c2ncc(N[*:1])cn2)=N1)[*:2]; Abu = CC[C@H](N)C(=O)O

Legend:
[1] = biological target: T1, ZNRF3 extracellular domain (ZNRF3-ECD) (Homo sapiens, UniProt Q9ULT6); experiment: Biolayer interferometry (BLI) binding to immobilized biotinylated ZNRF3-ECD; conditions: for Kd: streptavidin biosensors
T1 construct: The ZNRF3 ECD was expressed and characterized exactly as previously described; SUMO (N, cleaved yes); made in house; host or cells: E. coli BL21, co-expressing BirA
T1 sequence (Q9ULT6 56-219 limits assumed): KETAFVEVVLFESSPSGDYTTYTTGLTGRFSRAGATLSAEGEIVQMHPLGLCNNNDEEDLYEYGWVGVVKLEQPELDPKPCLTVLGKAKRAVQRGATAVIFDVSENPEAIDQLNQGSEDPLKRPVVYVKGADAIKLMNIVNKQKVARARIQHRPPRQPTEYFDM
Method: The ZNRF3 ECD was expressed and characterized exactly as previously described.[38] Plasmid pET28a-SUMO-ZNRF3-Avi was cotransformed into E. coli (BL21) along with a plasmid expressing BirA. The cells were then inoculated into 2× YT containing 50 μg/mL kanamycin and 34 μg/mL chloramphenicol and grown at 37 °C until OD = 0.5. Expression was then induced by the addition of 1 mM IPTG and 50 μM biotin, and then the protein was expressed for 18 h at 16 °C. The cells were then pelleted (3750g, 15 min) and then resuspended in buffer A (50 mM Tris-HCl, 10% glycerol, 150 mM NaCl, and 25 mM imidazole, pH 7.5, 20 mL/liter of expression). The cells were then lysed by sonication (1 s on, 1 s off, 5 min, 60% A, repeated once), and the lysate was clarified by centrifugation (25,000g, 20 min). The supernatant was then incubated with a Ni-NTA column for 45 min at 4 °C. The column was then washed with 5 CV of buffer A before being eluted using 2 CV of buffer B (buffer A + 240 mM imidazole). The elution was then concentrated using an Amicon centrifugal filter before being desalted into buffer A on a HiPrep 26/10 column. The SUMO tag was then cleaved by the addition of 30 μg/mL SUMO protease and incubation for 48 h at 4 °C. The protein was then loaded onto a second Ni-NTA column for 45 min at 4 °C, and the flowthrough was collected and concentrated to 1 mL by centrifugation. Pure protein was then isolated using size exclusion chromatography (HiLoad 16/600, Superdex 75 pg) in buffer C (50 mM Tris-HCl, pH 7.5, 10% (v/v) glycerol, 150 mM NaCl, and 0.5 mM EDTA). Pure protein was stored in storage buffer (50 mM Tris-HCl, pH 7.5, 50% (v/v) glycerol, and 150 mM NaCl) at −80 °C before being used for assays.
Biolayer interferometry (BLI) experiments were performed using streptavidin-coated biosensors (Sartorius Bio) on an Octet R8 biolayer interferometer (Sartorius Bio). All experiments were performed in assay buffer (10 mM HEPES, 150 mM NaCl, and 0.01% Tween 20, pH 7.5). Biotinylated ZNRF3 (28 μg/mL in assay buffer) was loaded onto the sensor to 4 nm of loading over 10 min, and then the sensors were quenched for one min with a 1% BSA solution in assay buffer. Peptides were serially diluted in assay buffer containing 0.8% DMF, and the association and dissociation to ZNRF3 were measured over 3 and 5 min, respectively. Between each experiment, sensors were regenerated using 10 mM glycine, pH 1.5. Binding curves were double-referenced against a protein-only sensor and a parallel unloaded sensor to correct for any nonspecific binding to the sensors. All curves were fit in the Octet Kinetic Analysis program (Sartorius Bio) using a 1:1 protein/ligand binding model.

[2] = tested on: CA5C-sfGFP; experiment: Cyclization of CA5C-sfGFP with linkers (LC-ESI-MS); conditions: 100 μM linker, 3 h, 22 °C (RT), PBS pH 7.4, 1 mM TCEP
Method: The designed organic linkers were tested for their ability to cyclize a CA5C peptide expressed as an N-terminal fusion to sfGFP (CA5C-sfGFP). Following reduction of the protein with 1 mM TCEP for 30 min, 100 μM compounds were reacted with the reduced CA5C-sfGFP for 3 h in PBS (pH 7.4). Following the reaction, the protein was analyzed via electrospray ionization mass spectrometry (ESI-MS) analysis to determine the desired adduct and any potential side reactions that occurred. […] This is likely due to the electron withdrawing effects of the nitrogen atoms adjacent to the nitrile in the 2-cyanopyrimidine derivatives. […] Following previously established Bayesian deconvolution of the mass spectra,[23] protein masses from each reaction (MW = 28,399 Da) corresponded well with that of the expected cyclic product (MW = 28,399 Da). […] This observed mass matches a TCEP-conjugated product resulting from a previously reported competing phospha-Michael addition of TCEP to the acrylamide moiety.[24] This product has a TCEP-functionalized linker that is nonreactive toward the internal cysteine (Figure 2A,B). Following these initial studies, we then further optimized the cyclization of CA5C-sfGFP using pCAmCP and mCAmCP by varying the reaction time, temperature, and concentration of linkers (Figure 2C).
Purified CA5C-sfGFP was diluted to 500 nM in PBS (pH 7.4) containing 1 mM TCEP and left to incubate for 30 min at 37 °C. Linker (100 μM final concentration) or equivalent amounts of DMSO were then added to the solution, and it reacted at varying times (3 or 16 h) and temperatures (22 or 37 °C). All initial tests for reactivity were performed at 22 °C for 3 h, while linkers pCAmCP and mCAmCP were optimized with the additional conditions. The reaction mixtures were then concentrated and exchanged to ammonium bicarbonate (50 mM, pH 8.0) using an Amicon centrifugal filter (MWCO: 10 kDa). Samples were analyzed using a QExactive Orbitrap LC–MS System (Thermo Fisher) and deconvoluted using UniDec software.[23]

[3] = biological target: T1, ZNRF3 extracellular domain (ZNRF3-ECD); experiment: Phage selection against ZNRF3-ECD, NGS enrichment, pCAmCP-cyclized library; assay type: binding
Source text: In addition to simply ensuring the cyclization potential on phage, we also looked to investigate the selection differences using two different linkers to macrocyclize the same initial peptide library. ZNRF3 is a membrane protein that contains an intracellular E3 ligase domain and has previously shown potential in promoting degradation of oncogenic membrane proteins, such as PDL1.[32] ZNRF3 also plays a major role in the regulation of the Wnt signaling cascade, which can modulate a variety of cell processes related to oncogenesis and cell differentiation.[33]−[36] […] Because it has an extracellular domain that can be easily accessible to macrocyclic peptides, we envisioned that a selection against the extracellular domain for ZNRF3 (ZNRF3-ECD) would afford peptides that could potentially be used in the development of proteolysis-targeting chimeras (PROTACs) for a variety of membrane proteins. We expressed and characterized a biotinylated ZNRF3-ECD using an Avi-Tag on the […] to facilitate the selection using streptavidin magnetic beads, as has been previously described (Figure S20).[38] […] To avoid the potential for enriching peptides that bind to the streptavidin resin, we alternated loading the protein using streptavidin and NHS-functionalized magnetic beads for the first three rounds of selection (Figure 5).
The purified phage library (10^11 to 10^12 cfu) in binding buffer was incubated with 1 mM TCEP at 37 °C. After 30 min, the linker (pCAmCP or mCAmCP, 10 mM in DMSO) was added to a final concentration of 100 μM. The solution was incubated for 24 h at RT with slow rotation. The library was then directly used for affinity selection without further purification.
Streptavidin-coated magnetic beads (100 μL, 50% slurry, Cytiva Sera-Mag) were transferred to a 1.5 mL tube, washed three times with 1 mL of binding buffer (10 mM HEPES, 150 mM NaCl, 10 mM MgCl2, and 1 mM KCl, pH 7.4), resuspended in 100 μL of binding buffer, and split into two tubes. […]

[4] = 10 mM HEPES, 150 mM NaCl, 0.01% Tween 20, pH 7.5, 0.8% DMF, 1:1 binding model, mean ± s.d., n = 3
[5] = 10 mM HEPES, 150 mM NaCl, 0.01% Tween 20, pH 7.5, 0.8% DMF

CC(C)C[C@@H]1NC(=O)[C@H](CCCCN)NC(=O)[C@H](CCC(N)=O)NC(=O)[C@H](CCCNC(=N)N)NC(=O)[C@H](Cc2c[nH]c3ccccc23)NC(=O)[C@H](C)NC(=O)[C@H](CCC(=O)O)NC(=O)[C@H](CC(C)C)NC(=O)[C@@H]2CCCN2C(=O)[C@H](CO)NC(=O)[C@H](CC(C)C)NC(=O)[C@H](Cc2c[nH]cn2)NC(=O)[C@@H](N)CSSC[C@@H](C(N)=O)NC1=O [Peptide Z27S1Disulf] (H-CHLSPLEAWRQKLC-NH2; disulfide 1-14)
Kd [1, 4]: 3 ± 2 µM

CHLSPLEAWRQKLC (also: sidechain bridge or staple (positions not given here)) [Peptide Z27S1-mCP, Z27S1 cyclized with mCAmCP]
binding to ZNRF3 (in words) [1, 5]: No significant dose-dependent interactions were observed; also recorded: no significant binding to ZNRF3

C=CC(=O)Nc1cnc(C#N)cn1 [pAcCPy]
reactivity with / cyclization of CA5C-sfGFP (in words) [2]: essentially no reactivity with the protein

CC(C)C[C@@H]1NC(=O)[C@H](CCCCN)NC(=O)[C@H](CCC(N)=O)NC(=O)[C@H](CCCNC(=N)N)NC(=O)[C@H](Cc2c[nH]c3ccccc23)NC(=O)[C@H](C)NC(=O)[C@H](CCC(=O)O)NC(=O)[C@H](CC(C)C)NC(=O)[C@@H]2CCCN2C(=O)[C@H](CO)NC(=O)[C@H](CC(C)C)NC(=O)[C@H](Cc2c[nH]cn2)NC(=O)[C@@H]2CSC(=N2)c2ncc(cn2)NC(=O)CSC[C@@H](C(N)=O)NC1=O [Peptide Z27S1] ({CH2CO}-[X1]HLSPLEAWRQKLC-NH2; thioether N-14)
binding to ZNRF3 (in words) [1, 5]: nanomolar affinity to ZNRF3
Kd ([1]; pH 7.5, 1:1 binding model, value as given in abstract): 0.36 µM
fold increase in abundance after round 2 ([3]; enrichment after round 2): > 16,000 -fold
presence in round 1 sequencing data (in words) ([3]; round 1): not found in the round 1 sequencing data
share of total sequences in round 4 ([3]; round 4, 69,462 total sequences): 67%

CC[C@H](C)[C@@H]1NC(=O)[C@H](Cc2ccccc2)NC(=O)[C@H](CCC(N)=O)NC(=O)[C@H](C)NC(=O)[C@H](C)NC(=O)[C@H](CC(N)=O)NC(=O)[C@@H]2CCCN2C(=O)[C@@H]2CSC(=N2)c2ncc(cn2)NC(=O)CSC[C@@H](C(N)=O)NC(=O)[C@H](C)NC(=O)[C@H](CCCNC(=N)N)NC(=O)[C@H](CO)NC(=O)[C@H](Cc2ccc(O)cc2)NC(=O)[C@H](CCCNC(=N)N)NC1=O [Peptide Z27S3] ({CH2CO}-[X1]PNAAQFIRYSRAC-NH2; thioether N-14)
Kd [1, 4]: 3.5 ± 0.3 µM

C=CC(=O)Nc1cnc(C#N)nc1 [pAcCP]
reactivity with / cyclization of CA5C-sfGFP (in words) [2]: did not result in the expected CA5C-sfGFP cyclization

[Abu]PNAAQFIRYSRA[Abu] [Peptide Z27S3Abu, Abu derivative of Z27S3]
binding to ZNRF3 (in words) [1, 5]: no binding to ZNRF3

C=CC(=O)Nc1ccnc(C#N)n1 [mAcCP]
reactivity with / cyclization of CA5C-sfGFP (in words) [2]: did not result in the expected CA5C-sfGFP cyclization

CC[C@H](C)[C@@H]1NC(=O)[C@H](Cc2ccccc2)NC(=O)[C@H](CCC(N)=O)NC(=O)[C@H](C)NC(=O)[C@H](C)NC(=O)[C@H](CC(N)=O)NC(=O)[C@@H]2CCCN2C(=O)[C@@H](N)CSSC[C@@H](C(N)=O)NC(=O)[C@H](C)NC(=O)[C@H](CCCNC(=N)N)NC(=O)[C@H](CO)NC(=O)[C@H](Cc2ccc(O)cc2)NC(=O)[C@H](CCCNC(=N)N)NC1=O [Peptide Z27S3Disulf] (H-CPNAAQFIRYSRAC-NH2; disulfide 1-14)
Kd [1, 4]: 4 ± 1 µM
